Reference: paper PMC10890502, “Prevention of Protease-Induced Degradation of Desmoplakin via Small Molecule Binding” (Journal of Personalized Medicine, 2024)
Where a chain is given by its changes, count along the chain named. Like-named read-outs stand apart in the source and are kept apart here.

Legend:
Assay in all cases: biochemical
[1] = molecular target: T1, sDSP (DSP178–627) (Homo sapiens, UniProt P15924, S442F); set-up: FITC-sDSP S442F degradation by trypsin (1:50), fluorescence polarization after 60 min, per cent of protease-only control; conditions: degradation rate of DSP S442F by trypsin; read-out: % of control remaining
T1 construct: gene DSP; N-terminal spectrin repeat/SH3 fragment, residues 178-627; pGEX-1 GST fusion cut with thrombin, E. coli BL21(DE3); fluorescein-5-maleimide label on exposed cysteines (C405, C524)
T1 sequence (P15924 178-627 S442F): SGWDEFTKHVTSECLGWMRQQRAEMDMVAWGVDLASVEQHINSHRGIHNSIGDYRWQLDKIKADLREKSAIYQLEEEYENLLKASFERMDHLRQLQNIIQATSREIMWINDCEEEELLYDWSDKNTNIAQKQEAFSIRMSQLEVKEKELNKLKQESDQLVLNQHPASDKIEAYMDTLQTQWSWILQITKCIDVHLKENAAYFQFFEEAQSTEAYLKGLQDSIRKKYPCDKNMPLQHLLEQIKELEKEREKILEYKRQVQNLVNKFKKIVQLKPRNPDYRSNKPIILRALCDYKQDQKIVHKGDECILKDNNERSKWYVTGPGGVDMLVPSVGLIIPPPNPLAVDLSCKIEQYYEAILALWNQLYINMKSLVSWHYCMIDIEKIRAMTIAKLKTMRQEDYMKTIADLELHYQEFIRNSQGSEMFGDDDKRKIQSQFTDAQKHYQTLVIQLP
Description: Fluorescence Polarization (FP) assays were conducted in […] format using a BioTek Synergy H4 plate reader with polarization capacity (Agilent; Savage, MD, USA). All samples were run at 25 °C using PBS pH 7.4, 1 mM DTT, 10 mM CaCl2, 5% DMSO, and […] FITC- DSP178–627, with 500 μM of each drug. Trypsin, chymotrypsin, or calpain at either 1:50, 1:50, or 1:20 concentration was added directly before data collection with an average void time of 2 min. Control experiments in each plate were conducted in triplicate and consisted of DSP178–627 + DMSO + protease as a positive control and DSP178–627 + DMSO + [compound left out] + protease as a negative control. Only plates that had functional positive and negative controls were used in data analysis. Samples were excited at 485 nm, and polarization was monitored at 528 nm. Data were collected at 5 min increments for 1–3 h. A mutation that partially occludes the DSP calpain cleavage site rescues DSP protein levels. We next assessed whether protease-dependent cleavage can also be blocked by small molecules. We screened 2496 FDA-approved drugs for their ability to prevent trypsin-dependent cleavage of sDSP S442F in our FP assay (Figure 3A). […] No change in fluorescence polarization after an hour is indicative of 0% protein degradation rate, as occurs in the [compound left out] positive control. […] (A) sDSP S442F degradation in the presence of trypsin plus 2496 compounds from the Cayman chemical “FDA library”. A degradation rate of 100% indicates the same desmoplakin degradation rate with and without the addition of 500 μM drug while a 0% rate indicates no degradation, as judged by fluorescent polarization values after 1 h. A trypsin-only control and a trypsin + [compound left out] control is indicated. Protection (red lines) was arbitrarily set between 33% and −10%. […] (B) Example of how the data in A was generated.

[2] = molecular target: T2, sDSP (DSP178–627) (Homo sapiens, UniProt P15924); set-up: FITC-sDSP degradation by calpain (1:20), fluorescence polarization after 60 min, per cent of calpain-only control; conditions: degradation rate of DSP WT by calpain; read-out: % of control remaining
T2 construct: gene DSP; N-terminal spectrin repeat/SH3 fragment, residues 178-627; pGEX-1 GST fusion cut with thrombin, E. coli BL21(DE3); fluorescein-5-maleimide label on exposed cysteines (C405, C524)
T2 sequence (P15924 178-627): T1 sequence (P15924 178-627 S442F) with F265S
Description: (§1) Fluorescence Polarization (FP) assays were conducted in […] format using a BioTek Synergy H4 plate reader with polarization capacity (Agilent; Savage, MD, USA). All samples were run at 25 °C using PBS pH 7.4, 1 mM DTT, 10 mM CaCl2, 5% DMSO, and […] FITC- DSP178–627, with 500 μM of each drug. Trypsin, chymotrypsin, or calpain at either 1:50, 1:50, or 1:20 concentration was added directly before data collection with an average void time of 2 min. Control experiments in each plate were conducted in triplicate and consisted of DSP178–627 + DMSO + protease as a positive control and DSP178–627 + DMSO + [compound left out] + protease as a negative control. Only plates that had functional positive and negative controls were used in data analysis. Samples were excited at 485 nm, and polarization was monitored at 528 nm. Data were collected at 5 min increments for 1–3 h. […] Therefore, we next tested whether these 62 compounds also prevent wildtype and variant DSP degradation in the presence of calpain. […] (A) Normalized fluorescent polarization of WT and sDSP variants in the presence of a 1:20 ratio of calpain plus 500 μM drug, as compared to calpain alone (black) (B) Identity and chemical structure of the six best-performing compounds.

[3] = molecular target: T3, sDSP (DSP178–627) (Homo sapiens, UniProt P15924, R451G); set-up: FITC-sDSP degradation by calpain (1:20), fluorescence polarization after 60 min, per cent of calpain-only control; conditions: degradation rate of DSP R451G by calpain; read-out: % of control remaining
T3 construct: gene DSP; N-terminal spectrin repeat/SH3 fragment, residues 178-627; pGEX-1 GST fusion cut with thrombin, E. coli BL21(DE3); fluorescein-5-maleimide label on exposed cysteines (C405, C524)
T3 sequence (P15924 178-627 R451G): T1 sequence (P15924 178-627 S442F) with F265S, R274G
Description: as §1

[4] = molecular target: T4, sDSP S507F (Homo sapiens, UniProt P15924, S507F); set-up: FITC-sDSP degradation by calpain (1:20), fluorescence polarization after 60 min, per cent of calpain-only control; conditions: degradation rate of DSP S507F by calpain; read-out: % of control remaining
T4 construct: gene DSP; N-terminal fragment, residues 178-627
Description: as §1

[5] = molecular target: T1, sDSP (DSP178–627); set-up: FITC-sDSP degradation by calpain (1:20), fluorescence polarization after 60 min, per cent of calpain-only control; conditions: degradation rate of DSP S442F by calpain; read-out: % of control remaining
Description: as §1

T4 sequence (P15924 whole entry S507F, the tested form may be a part): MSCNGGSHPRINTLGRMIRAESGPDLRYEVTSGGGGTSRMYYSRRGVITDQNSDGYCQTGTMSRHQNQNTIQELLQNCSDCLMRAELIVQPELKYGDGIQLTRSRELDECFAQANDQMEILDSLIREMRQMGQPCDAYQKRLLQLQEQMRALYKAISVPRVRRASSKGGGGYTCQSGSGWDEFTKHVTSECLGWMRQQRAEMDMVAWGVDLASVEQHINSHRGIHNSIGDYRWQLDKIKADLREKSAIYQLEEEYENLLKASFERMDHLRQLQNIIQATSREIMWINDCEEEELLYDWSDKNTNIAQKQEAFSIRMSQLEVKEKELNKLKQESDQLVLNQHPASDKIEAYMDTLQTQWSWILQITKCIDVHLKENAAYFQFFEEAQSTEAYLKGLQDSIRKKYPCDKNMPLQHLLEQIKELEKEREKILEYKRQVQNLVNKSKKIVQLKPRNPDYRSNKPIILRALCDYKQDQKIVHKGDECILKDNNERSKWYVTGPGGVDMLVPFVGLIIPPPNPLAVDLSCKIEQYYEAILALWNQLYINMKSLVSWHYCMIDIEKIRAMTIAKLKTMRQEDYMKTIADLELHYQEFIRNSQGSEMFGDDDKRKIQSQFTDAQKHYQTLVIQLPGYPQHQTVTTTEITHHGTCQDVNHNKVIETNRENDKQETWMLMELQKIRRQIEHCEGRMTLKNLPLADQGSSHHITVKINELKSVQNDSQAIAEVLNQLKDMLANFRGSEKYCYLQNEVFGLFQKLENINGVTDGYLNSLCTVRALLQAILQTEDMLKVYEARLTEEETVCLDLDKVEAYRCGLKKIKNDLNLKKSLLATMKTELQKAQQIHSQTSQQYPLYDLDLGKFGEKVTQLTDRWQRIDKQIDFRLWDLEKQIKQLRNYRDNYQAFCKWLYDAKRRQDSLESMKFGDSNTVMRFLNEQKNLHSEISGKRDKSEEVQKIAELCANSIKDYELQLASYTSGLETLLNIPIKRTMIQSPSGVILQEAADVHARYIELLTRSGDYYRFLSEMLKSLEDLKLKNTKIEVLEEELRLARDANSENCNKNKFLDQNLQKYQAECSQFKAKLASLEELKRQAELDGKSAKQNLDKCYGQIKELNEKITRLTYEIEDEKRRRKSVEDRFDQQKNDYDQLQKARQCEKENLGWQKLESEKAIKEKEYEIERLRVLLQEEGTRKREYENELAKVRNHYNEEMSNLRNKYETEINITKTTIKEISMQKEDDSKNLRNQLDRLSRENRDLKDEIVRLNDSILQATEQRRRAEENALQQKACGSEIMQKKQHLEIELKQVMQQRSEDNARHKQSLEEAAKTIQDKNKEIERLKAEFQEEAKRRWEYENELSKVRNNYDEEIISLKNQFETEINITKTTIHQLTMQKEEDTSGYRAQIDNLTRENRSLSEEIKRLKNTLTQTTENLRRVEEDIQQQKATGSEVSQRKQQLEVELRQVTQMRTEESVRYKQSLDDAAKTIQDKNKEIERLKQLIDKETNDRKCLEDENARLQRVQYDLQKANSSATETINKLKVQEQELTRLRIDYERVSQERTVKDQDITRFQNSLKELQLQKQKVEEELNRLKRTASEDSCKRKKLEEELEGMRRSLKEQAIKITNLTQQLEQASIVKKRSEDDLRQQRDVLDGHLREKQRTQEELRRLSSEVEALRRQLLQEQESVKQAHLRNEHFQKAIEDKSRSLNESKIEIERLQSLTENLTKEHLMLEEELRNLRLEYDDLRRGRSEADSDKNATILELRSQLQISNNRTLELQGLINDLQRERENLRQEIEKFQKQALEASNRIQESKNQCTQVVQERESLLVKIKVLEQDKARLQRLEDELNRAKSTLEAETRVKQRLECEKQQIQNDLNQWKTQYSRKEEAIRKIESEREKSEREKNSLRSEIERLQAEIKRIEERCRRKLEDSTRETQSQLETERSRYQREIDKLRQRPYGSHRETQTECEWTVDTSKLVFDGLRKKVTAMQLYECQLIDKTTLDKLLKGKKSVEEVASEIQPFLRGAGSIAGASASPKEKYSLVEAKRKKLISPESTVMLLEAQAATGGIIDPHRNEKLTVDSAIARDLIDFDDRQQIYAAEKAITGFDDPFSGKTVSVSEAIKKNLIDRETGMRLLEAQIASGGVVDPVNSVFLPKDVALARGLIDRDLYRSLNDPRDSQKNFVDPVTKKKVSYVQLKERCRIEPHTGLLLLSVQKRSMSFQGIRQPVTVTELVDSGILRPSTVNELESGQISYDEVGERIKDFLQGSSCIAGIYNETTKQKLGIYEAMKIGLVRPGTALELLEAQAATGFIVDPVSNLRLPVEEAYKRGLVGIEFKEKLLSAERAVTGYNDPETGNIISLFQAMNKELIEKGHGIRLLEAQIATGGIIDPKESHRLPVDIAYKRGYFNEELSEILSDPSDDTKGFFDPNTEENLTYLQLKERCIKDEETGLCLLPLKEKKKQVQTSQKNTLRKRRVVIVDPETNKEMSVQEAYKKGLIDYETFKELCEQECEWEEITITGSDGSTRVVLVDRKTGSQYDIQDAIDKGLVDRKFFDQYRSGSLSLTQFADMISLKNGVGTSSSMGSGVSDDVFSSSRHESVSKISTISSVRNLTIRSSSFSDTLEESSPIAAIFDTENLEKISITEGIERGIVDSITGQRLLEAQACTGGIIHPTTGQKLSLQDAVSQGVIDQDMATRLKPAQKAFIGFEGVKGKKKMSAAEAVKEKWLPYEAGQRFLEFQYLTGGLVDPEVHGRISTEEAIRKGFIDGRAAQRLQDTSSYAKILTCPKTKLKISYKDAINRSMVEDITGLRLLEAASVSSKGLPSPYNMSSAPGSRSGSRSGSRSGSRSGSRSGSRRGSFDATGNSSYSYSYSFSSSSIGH

## COc1ccc(-c2cc(=O)c3c(O)cc(O)cc3o2)cc1O [Diosmetin]
[1]
  remaining activity at 500 µM: 18%
[2]
  remaining activity at 500 µM: 84%
[3]
  remaining activity at 500 µM: 30%
[4]
  remaining activity at 500 µM: 0%
[5]
  remaining activity at 500 µM: 73%
